Experimental findings from PMC12036197, “Green synthesis of PEGylated iron oxide nanoparticles of Eriobotrya japonica leaves extract in combination with B3, against Plasmodium falciparum 3D7 strain” (Tropical Medicine and Health, 2025) are described below.

In data set [1] the test system is Plasmodium falciparum 3D7. Kind of data set: Growth inhibition of Plasmodium falciparum 3D7 in RPMI 1640 culture medium, single drugs. It counts as cell-based. The note with it: for Growth inhibition rate: highest growth inhibition, RPMI 1640, 24 h.
Description: Plates with a capacity of 4 ml or T25 culture flasks were employed for the cultivation of parasites. CCM culture medium and blood (to sustain a hematocrit of 10% within the culture medium for the proliferation and replication of the parasite) were supplemented into the dishes. […] Parasites were multiplied in a CCM medium containing 10% hematocrit with O + human erythrocyte and albumax (0.5%) serving as a growth factor. The culture plates were incubated at 37 °c in a candle jar, with the fresh medium being replenished every 48 h. A thin blood smear was prepared from the sediment collected from each plate, followed by the quantification of parasites on 10,000 red blood cells.
To investigate the effect of drugs on the culture medium, two stages were conducted. The effect of the drug was performed when 80% of the parasites were in the ring stage and the parasitemia was 6%. […] In the first step, the drugs were treated separately and their IC50 was measured. For plant extract, dilutions of 100, 200, 400 and 800 µg/mL (dry extract) of culture medium were done in 12 wells of a 96-well plate (in triplicate).
For polyethylene glycol, dilutions of 10, 100, 1000 and 10000 µg/mL of culture medium were done in 12 wells of a 96-well plate (in triplicate). For the nanoparticle produced by the PEGylated green synthesis method (PEG-HNPs) dilutions of 50, 100, 200, and 400 µg/mL culture medium were done in 12 wells of 96-well plates (in triplicate). In the second step, the effect of the IC50 combination of drugs with each other was investigated by the Fix ratio method on the culture medium. In this way, the percentage ratio of 0, 10, 30, 50, 70, 90, and 100 of one drug was combined with another drug and it was given an effect on the culture medium, and their synergistic and antagonistic effect was investigated by affecting the amount of parasitemia. Negative control consisted of 15 μL of freshly washed RBC plus 85 μL of CCM. […] Statistical analysis was done using GraphPad prism9 software and the results were analyzed with one-way ANOVA. […]
The next data set relates to red blood cells. Put plainly: Hemolytic test. The class given is cell-based, human. The conditions noted are these: 3 h incubation. On the procedure:
To conduct the hemolytic test on the hydroalcoholic extract of […], nicotinamide, and green-synthesized nanoparticles, 5 mL of fresh whole blood with heparin anticoagulant was obtained from a healthy volunteer. After centrifugation and washing with PBS, 1% blood suspension was prepared. In each well of three microplates, 100 µL of the prepared blood was added. Subsequently, 100 µL of the hydroalcoholic extract, nicotinamide, and green-synthesized nanoparticles with concentrations of 0.1, 1, 10, 50, 100 and 200 µg/mL, were added into the second to seventh wells of all three microplates, respectively. The first wells served as negative controls, containing an equal volume of PBS, while the eighth wells were positive controls, containing 100 µL of Triton X-100. After 3 h of incubation and centrifugation, the optical absorbance of the supernatant was measured at a wavelength of 540 nm. The percentage of drug-induced hemolysis was calculated using the following formula [28]: Percenthemolysis%=ODtest-ODnegativecontrol/ODpositivecontrol-ODnegativecontrol×100.
Investigating the hemolytic effect of Eriobotrya japonica hydroalcoholic extract (herbal extract), nicotinamide (NAM), and PEGylated green synthesized iron oxide nanoparticles (HNPs) on red blood cells at concentrations of 0.1, 1, 10, 50, 100 and 200 µg/mL were evaluated (Table 3). The optical absorbance of PBS was measured as negative control 0.01 and the optical absorbance of Triton X-100 was measured as positive control 1.00 (Fig. 5).

The inhibition is the drop in the measured response relative to a control, in per cent. In the case of `CCN(CC)CCCC(C)Nc1ccnc2cc(Cl)ccc12` (stereo not drawn) [CQ, chloroquine diphosphate], the inhibition at 8 µg/mL in data set [1] (Plasmodium falciparum, 3D7, 24 h, read-out: Growth inhibition rate) was determined as 95%.
`NC(=O)c1cccnc1` [NAM, nicotinamide]: the “Percentage of drug hemolysis” value came out at 1% with red blood cells (drug concentration 0.1 µg/mL); 2% in the data set on red blood cells (drug concentration 1 µg/mL); 4% in the data set with red blood cells (drug concentration 10 µg/mL); 6% in the data set on red blood cells (drug concentration 50 µg/mL); 8% in the data set on red blood cells (drug concentration 100 µg/mL); 9% in the data set with red blood cells (drug concentration 200 µg/mL). In data set [1] (concentration 3000 µg/ml), this compound gave a Growth inhibition rate of 94%.
Regarding polyethylene glycol 600 [PEG], the Growth inhibition rate in data set [1] (concentration 10000 µg/ml) is listed as 71%.
